Values quoted from earlier work as cited in patent US20200016283A1, “COMBINATION THERAPY COMPRISING A RADIOPHARMACEUTICAL AND A DNA-REPAIR INHIBITOR” (Bayer AS, priority 2017, published 2020).

Conditions: complexed at ambient temperature in aqueous solutions

Stability of the Th-227 complex: highly stable
SMILES: Cn1ccc(C(=O)NCCN(CCNC(=O)c2ccn(C)c(=O)c2O)CC(Cc2ccc(CC(=O)CCC(=O)O)cc2)CN(CCNC(=O)c2ccn(C)c(=O)c2O)CCNC(=O)c2ccn(C)c(=O)c2O)c(O)c1=O [IV′]
